Laboratory results reported in US20210244712A1, “METHODS FOR TREATING PATIENTS WITH CANCER HAVING DEFECTS IN CYCLIN D REGULATION” (NysnoBio Ireland DAC, priority 2018, published 2021).
Where two headings read alike, the source gives them in different places.

What was measured:
Type in all cases: cell-based
TOV-112D = assay: Cell proliferation assay; settings: Homo sapiens, TOV112D, Table 7b, TOV-112D, read-out: Cell Proliferation Assay (EC50)
Method: (§1) Measurement of the inhibitive effect of compounds on cancer cell proliferation was performed. The assays were performed under the following conditions: Cells are harvested at a concentration of 4×10^4 cells/ml in media. Volumes of 100 μL/well of these cell suspensions were added to a 96 well plate using a multichannel pipette. Plates were gently agitated to ensure an even dispersion of cells over a given plate. Cells were then incubated at 37° C., 5% CO2 overnight. Following this, 100 μL of compound at varying concentrations was added to wells in triplicate. Control wells are those with 100 μL media containing 0.33% DMSO added to cell suspension (this is the equivalent volume of DMSO found in the highest concentration of drug). Plates were then gently agitated, as above, and incubated at 37° C., 5% CO2 for 72 hrs (control wells have reached 80-90% confluency). Assessment of cell proliferation in the presence of Compounds C and F was determined by the acid phosphatase assay.
(§2) Following the incubation period of 72 hrs, media was removed from the plates. Each well on the plate was washed twice with 100 μL PBS. This was then removed and 100 μL of freshly prepared phosphatase substrate (10 mM p-nitrophenol phosphate in 0.1M sodium acetate, 0.1% triton X-100, pH 5.5) was added to each well. The plates were then incubated in the dark at 37° C. for 2 hours. Color development was monitored during this time. The enzymatic reaction was stopped by the addition of 50 μL of 1N NaOH. The plate was read in a dual beam plate reader at 405 nm with a reference wavelength of 620 nm. The absorbance reading of the latter is subtracted from the former, and the effect of the drug on cell proliferation was then measured as a percentage against the control cells (DMSO), which is taken as 0% inhibition.

HCT 116 = assay: Cell proliferation assay; settings: Homo sapiens, Table 7b, HCT-116, read-out: Cell Proliferation Assay (EC50)
Method: as §1, §2

cyclin D1 = assay: Western blot of Cyclin D1, Example 6B; settings: 250 nM, 24 h, compared to control (DMSO)
Method: Cells were plated at a density of 3×10^5 cells/well for 24 hrs. Representative compounds or DMSO alone was then added to the wells for 24 h at 250 nM (note: Compound F was administered at a concentration of 2 μM). Cells were trypsinised, pelleted, washed ×3 in PBS, and lysed using a 2% SDS lysis solution (Sigma—05030).
Western blot analysis was then carried out to look at Cyclin D1 (Abeam—ab134175), PRK8 (Sigma—P6248), Rb (Abeam—[…]) and GAPDH (Sigma—G9545) levels.

Row | EC50 (HCT 116; cells printed in nM) [nM] | EC50 (HCT 116; cells printed in μM) [nM] | SMILES | EC50 (TOV-112D; cells printed in nM) [nM] | EC50 (TOV-112D; cells printed in μM) [nM] | Cyclin D1 expression (cyclin D1; HCT-116) | Cyclin D1 expression (cyclin D1; TOV-112)
1 | 972 | – | Cc1ccccc1C(=O)Nc1nc(NC(=O)c2ccc(CN)cc2)nn1-c1ccc(OC(F)(F)F)cc1 [Compound 1x, N-(3-(4-(aminomethyl)benzamido)-1-(4-(trifluoromethoxy)phenyl)-1H-1,2,4-triazol-5-yl)-2-methylbenzamide] | 350 | – | – | –
2 | – | 3000 | Cc1ccccc1C(=O)Nc1nc(NC(=O)c2ccc(CN)cc2)n(-c2ccc(OC(F)(F)F)cc2)n1 [Compound 2x] | – | 4000 | – | –
3 | 484 | – | CCCCCCC(=O)NCc1ccc(C(=O)Nc2nc(-c3ncccc3C)nn2-c2ccc(OC(F)(F)F)cc2)cc1 [Compound 3x, 4-(heptanamidomethyl)-N-(3-(3-methylpyridin-2-yl)-1-(4-(trifluoromethoxy)phenyl)-1H-1,2,4-triazol-5-yl)benzamide] | 349 | – | – | –
4 | 295 | – | CCCCCCC(=O)NCc1ccc(C(=O)Nc2nc(-c3ncccc3C)nn2-c2cccc(F)c2)cc1 [Compound 4x, N-(1-(3-fluorophenyl)-3-(3-methylpyridin-2-yl)-1H-1,2,4-triazol-5-yl)-4-(heptanamidomethyl)benzamide] | 227 | – | – | –
5 | 133 | – | Cc1cccnc1-c1nc(NC(=O)c2ccc(CN)cc2)n(-c2ccc(OC(F)(F)F)cc2)n1 [Compound 5x, 4-(aminomethyl)-N-(3-(3-methylpyridin-2-yl)-1-(4-(trifluoromethoxy)phenyl)-1H-1,2,4-triazol-5-yl)benzamide] | 114 | – | reduction of Cyclin D1 expression | reduction of Cyclin D1 expression
6 | – | 2000 | Cc1cccnc1-c1nc(NC(=O)c2ccc(CN)cc2)n(-c2cccc(F)c2)n1 [Compound 6x, 4-(aminomethyl)-N-(1-(3-fluorophenyl)-3-(3-methylpyridin-2-yl)-1H-1,2,4-triazol-5-yl)benzamide] | – | 2000 | reduction of Cyclin D1 expression | reduction of Cyclin D1 expression
7 | 406 | – | Cc1ccccc1C(=O)Nc1nc(-c2ccccc2O)nn1-c1ccc(N2CCNCC2)cc1 [Compound 7x, N-(3-(2-hydroxyphenyl)-1-(4-(piperazin-1-yl)phenyl)-1H-1,2,4-triazol-5-yl)-2-methylbenzamide] | 285 | – | reduction of Cyclin D1 expression | reduction of Cyclin D1 expression
8 | 246 | – | CCCCCCC(=O)N1CCN(c2ccc(-n3nc(-c4ccccc4O)nc3NC(=O)c3ccccc3C)cc2)CC1 [Compound 8x, N-(1-(4-(4-heptanoylpiperazin-1-yl)phenyl)-3-(2-hydroxyphenyl)-1H-1,2,4-triazol-5-yl)-2-methylbenzamide] | 124 | – | – | –
9 | 121 | – | CCCCCCC(=O)NCc1ccc(C(=O)Nc2nc(-c3ccccc3O)nn2-c2ccc(OC(F)(F)F)cc2)cc1 [Compound 9x, 4-(heptanamidomethyl)-N-(3-(2-hydroxyphenyl)-1-(4-(trifluoromethoxy)phenyl)-1H-1,2,4-triazol-5-yl)benzamide] | 82 | – | – | –
10 | 108 | – | NCc1ccc(C(=O)Nc2nc(-c3ccccc3O)nn2-c2ccc(OC(F)(F)F)cc2)cc1 [Compound 10x, 4-(aminomethyl)-N-(3-(2-hydroxyphenyl)-1-(4-(trifluoromethoxy)phenyl)-1H-1,2,4-triazol-5-yl)benzamide] | 71 | – | reduction of Cyclin D1 expression | reduction of Cyclin D1 expression
11 | 929 | – | Cc1ccccc1C(=O)Nc1nc(NC(=O)c2cccc(CN3CCOCC3)c2)nn1-c1ccc(OC(F)(F)F)cc1 [Compound 11x, 2-methyl-N-(3-(3-(morpholinomethyl)benzamido)-1-(4-(trifluoromethoxy)phenyl)-1H-1,2,4-triazol-5-yl)benzamide] | 774 | – | reduction of Cyclin D1 expression | reduction of Cyclin D1 expression
12 | 755 | – | Cc1ccccc1C(=O)Nc1nc(NC(=O)c2ccc(CNC(C)C)cc2)nn1-c1ccc(OC(F)(F)F)cc1 [Compound 12x, N-(3-(4-((isopropylamino)methyl)benzamido)-1-(4-(trifluoromethoxy)phenyl)-1H-1,2,4-triazol-5-yl)-2-methylbenzamide] | 183 | – | – | –
13 | 426 | – | Cc1ccccc1C(=O)Nc1nc(NC(=O)c2cccc(CNC(C)C)c2)nn1-c1ccc(OC(F)(F)F)cc1 [Compound 13x, N-(3-(3-((isopropylamino)methyl)benzamido)-1-(4-(trifluoromethoxy)phenyl)-1H-1,2,4-triazol-5-yl)-2-methylbenzamide] | 231 | – | reduction of Cyclin D1 expression | reduction of Cyclin D1 expression
14 | 412 | – | Cc1ccccc1C(=O)Nc1nc(NC(=O)c2ccc(CN3CCN(C)CC3)cc2)nn1-c1ccc(OC(F)(F)F)cc1 [Compound 14x, 2-methyl-N-(3-(4-((4-methylpiperazin-1-yl)methyl)benzamido)-1-(4-(trifluoromethoxy)phenyl)-1H-1,2,4-triazol-5-yl)benzamide] | 655 | – | reduction of Cyclin D1 expression | reduction of Cyclin D1 expression
15 | – | 1000 | Cc1ccccc1C(=O)Nc1nc(NC(=O)c2cccc(CN3CCN(C)CC3)c2)nn1-c1ccc(OC(F)(F)F)cc1 [Compound 15x, 2-methyl-N-(3-(3-((4-methylpiperazin-1-yl)methyl)benzamido)-1-(4-(trifluoromethoxy)phenyl)-1H-1,2,4-triazol-5-yl)benzamide] | – | 3000 | – | –
16 | 412 | – | Cc1ccccc1C(=O)Nc1nc(NC(=O)c2ccc(CNC(=O)[C@@H]3CCCN3)cc2)nn1-c1ccc(OC(F)(F)F)cc1 [Compound 16x, (S)—N-(4-((5-(2-methylbenzamido)-1-(4-(trifluoromethoxy)phenyl)-1H-1,2,4-triazol-3-yl)carbamoyl)benzyl)pyrrolidine-2-carboxamide] | 659 | – | – | –
